In PubChem BioAssay (NCI) one finds GI50 and TGI data, which are given here for 16 compounds.

Test systems include RXF 393 renal; SK-OV-3 ovarian; HOP-62 NSCLC; SK-MEL-2 melanoma; OVCAR-4 ovarian; TK-10 renal; OVCAR-3 ovarian; OVCAR-8 ovarian; HT29 colon; NCI-H460 lung.
What all share (assay): NCI anticancer screen, dose series, 48 h

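96-well plates; 48 h exposure; 5 concentrations. Endpoints by linear interpolation between flanking doses. Not reached: highest tested concentration assigned. GI50 marks 50% less growth. The concentration for full growth arrest is given as TGI.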

As for `CCCCN1C(=O)/C(=c2\sc3n(c2=O)C2C(NN=3)N(CC)C(=O)N2CC)c2ccccc21` (stereo not drawn), the GI50 in the assay on RXF 393 renal was 0.365 µM; in the assay on SK-OV-3 ovarian, 0.911 µM; with HOP-62 NSCLC, 1.21 µM; in the assay with SK-MEL-2 melanoma, 1.47 µM; in the assay with OVCAR-4 ovarian it was 0.909 µM; with TK-10 renal, 1.82 µM. Besides, the TGI in the assay on RXF 393 renal stood at 2.23 µM; in the assay with SK-OV-3 ovarian, 5.89 µM; in the assay on HOP-62 NSCLC, 4.95 µM; in the assay on SK-MEL-2 melanoma it was 5.75 µM; with OVCAR-4 ovarian, 4.83 µM; in the assay on TK-10 renal, 6.26 µM.
As to `CC(C)(C)c1nc(-c2cccc(NS(=O)(=O)c3c(F)cccc3F)c2F)c(-c2ccnc(N)n2)s1`, the GI50 was 35.6 µM in the assay with OVCAR-3 ovarian; 47.2 µM with HOP-62 NSCLC; 50.5 µM in the assay with OVCAR-4 ovarian; 49.1 µM in the assay with OVCAR-8 ovarian; below 0.01 µM in the assay with HT29 colon; 30.4 µM in the assay on NCI-H460 lung. In addition, the GI50 with TK-10 renal is 31.8 µM. The TGI with OVCAR-3 ovarian, in the assay with HOP-62 NSCLC, in the assay on OVCAR-4 ovarian, with OVCAR-8 ovarian, in the assay with HT29 colon and in the assay on NCI-H460 lung was above 100 µM each time. In the assay on TK-10 renal, this compound showed a TGI above 100 µM.
As for `O=C1Nc2ccccc2/C1=C/c1cn(CC(O)Cn2cc(/C=C3\C(=O)Nc4ccccc43)c3ccccc32)c2ccccc12` (stereo not drawn), the GI50 with RXF 393 renal is 2.04 µM; in the assay with SK-OV-3 ovarian it was 1.65 µM; with OVCAR-3 ovarian, 1.65 µM; in the assay on HOP-62 NSCLC, 1.41 µM; with SK-MEL-2 melanoma, 1.77 µM; in the assay with HT29 colon, 1.42 µM. For the same compound, the GI50 was 0.488 µM in the assay on NCI-H460 lung and 2.68 µM with TK-10 renal. In addition, the TGI came out at 3.75 µM in the assay on RXF 393 renal; 3.68 µM in the assay with SK-OV-3 ovarian; 3.3 µM in the assay with OVCAR-3 ovarian; 3.06 µM in the assay on HOP-62 NSCLC; 3.49 µM in the assay with SK-MEL-2 melanoma; 3.52 µM in the assay with HT29 colon. Moreover, the results for the TGI in the assay with NCI-H460 lung and with TK-10 renal were 1.88 µM and 5.46 µM, respectively.
For the compound `COc1cc2nc(-c3cccc4cccnc34)nc(NC3CCN(Cc4ccccc4)CC3)c2cc1OC`, the GI50 in the assay on SK-OV-3 ovarian is 1.56 µM; in the assay on OVCAR-3 ovarian, 1.52 µM; in the assay on HOP-62 NSCLC, 1.23 µM; with SK-MEL-2 melanoma, 1.68 µM; in the assay on OVCAR-4 ovarian, 1.11 µM; with OVCAR-8 ovarian, 0.647 µM. The GI50 with HT29 colon is 0.419 µM; in the assay with NCI-H460 lung, 0.351 µM; with TK-10 renal, 1.52 µM. Besides, the TGI with SK-OV-3 ovarian worked out at 3.22 µM; in the assay on OVCAR-3 ovarian, 3.08 µM; with HOP-62 NSCLC, 3.05 µM; in the assay with SK-MEL-2 melanoma it was 3.53 µM; with OVCAR-4 ovarian, 2.71 µM; in the assay with OVCAR-8 ovarian, 2.64 µM. Moreover, the figures for the TGI with HT29 colon, in the assay with NCI-H460 lung and in the assay with TK-10 renal were 1.85 µM, 1.23 µM and 2.98 µM, respectively.
Turning to `COc1cc(C2c3cc4c(cc3[C@@H](N(C)c3ccc(N(C)C)cc3)C3COC(=O)C23)OCO4)cc(OC)c1O` (stereo partly drawn), the TGI is 43 µM in the assay with SK-OV-3 ovarian; 0.516 µM in the assay with OVCAR-3 ovarian; above 100 µM in the assay on HOP-62 NSCLC; 16.9 µM with SK-MEL-2 melanoma; 29.4 µM with OVCAR-4 ovarian; above 59.8 µM with OVCAR-8 ovarian. In addition, the values for the TGI in the assay with HT29 colon, with NCI-H460 lung and in the assay on TK-10 renal were 2.62 µM, 24.2 µM and 33.1 µM, respectively.
Regarding `CCN(CC)c1nc(NC2CCCCC2)c2nc(N(CC)CC)nc(NC3CCCCC3)c2n1`, the TGI was 99.8 µM in the assay with RXF 393 renal; above 100 µM in the assay with SK-OV-3 ovarian; above 100 µM in the assay on OVCAR-3 ovarian; above 100 µM in the assay on HOP-62 NSCLC; above 100 µM with OVCAR-8 ovarian; above 100 µM with HT29 colon. Moreover, the TGI with NCI-H460 lung and in the assay with TK-10 renal was above 100 µM in each case.
Turning to `Nc1nc2c(ccc3ccccc32)s1`, the GI50 was 37.2 µM in the assay on RXF 393 renal; 43.4 µM in the assay on OVCAR-3 ovarian; above 100 µM in the assay on HOP-62 NSCLC; above 100 µM in the assay with OVCAR-4 ovarian; above 100 µM in the assay with OVCAR-8 ovarian; above 100 µM in the assay on HT29 colon. The GI50 in the assay on NCI-H460 lung was above 100 µM; in the assay on TK-10 renal it was 35.2 µM. Further, the TGI in the assay on RXF 393 renal, in the assay on OVCAR-3 ovarian, with HOP-62 NSCLC, in the assay with OVCAR-4 ovarian, in the assay with OVCAR-8 ovarian and in the assay with HT29 colon was above 100 µM in each case. For the same compound, the TGI in the assay on NCI-H460 lung and in the assay on TK-10 renal was above 100 µM throughout.
Consider `c1cc[c]([Sn]([O]c2cccc3cccnc23)([O]c2cccc3cccnc23)[c]2ccccc2)cc1`, for which the GI50 in the assay on SK-OV-3 ovarian was 1.83 µM; in the assay with HOP-62 NSCLC, 5.26 µM; in the assay on OVCAR-4 ovarian it was 0.214 µM; with OVCAR-8 ovarian, 0.294 µM; in the assay with NCI-H460 lung, 1.36 µM; in the assay on TK-10 renal, 1.31 µM. Moreover, the TGI with SK-OV-3 ovarian amounted to 3.24 µM; with HOP-62 NSCLC, 17.9 µM; in the assay on OVCAR-4 ovarian it was 0.406 µM; in the assay with OVCAR-8 ovarian it was 0.859 µM; with NCI-H460 lung, 3.66 µM; in the assay with TK-10 renal, 2.73 µM.
For the compound `COC(=O)N/N=C(\C)C(CN(C)C)C(c1ccccc1)c1c(O)c2ccccc2oc1=O` (stereo not drawn), the TGI in the assay on RXF 393 renal, in the assay on SK-OV-3 ovarian, in the assay on HOP-62 NSCLC, in the assay on SK-MEL-2 melanoma, in the assay on OVCAR-4 ovarian and in the assay with OVCAR-8 ovarian was above 100 µM each time. The TGI with HT29 colon and in the assay with TK-10 renal was above 100 µM each time.
As for `COc1cc(NC(C)CCCNC(C)C)c2ncccc2c1OC` (stereo not drawn), the GI50 was above 100 µM with RXF 393 renal; above 100 µM in the assay with SK-OV-3 ovarian; 6.47 µM with OVCAR-3 ovarian; above 100 µM in the assay on HOP-62 NSCLC; 4.2 µM in the assay with OVCAR-4 ovarian; above 100 µM in the assay with OVCAR-8 ovarian. Further, the GI50 in the assay on NCI-H460 lung is 34.1 µM. Further, the TGI with RXF 393 renal is above 100 µM; with SK-OV-3 ovarian, above 100 µM; with OVCAR-3 ovarian, 51 µM; in the assay with HOP-62 NSCLC it was above 100 µM; in the assay with OVCAR-4 ovarian it was 53.3 µM; in the assay with OVCAR-8 ovarian, above 100 µM. In the assay with NCI-H460 lung, the TGI was above 100 µM.
`Cc1cc2c(cc1CO)N1Cc3cc(C)c(CO)cc3N(C2)C1`: the TGI in the assay with RXF 393 renal, with SK-OV-3 ovarian, in the assay with OVCAR-3 ovarian, with HOP-62 NSCLC, in the assay on OVCAR-4 ovarian and in the assay on OVCAR-8 ovarian was above 100 µM in each case. Also, the TGI in the assay on HT29 colon, with NCI-H460 lung and with TK-10 renal was above 100 µM each time.
For `Nc1ccccc1C(=O)NC(=O)Nc1ccc(Oc2ncc(Br)cn2)c(Cl)c1`, the TGI in the assay on RXF 393 renal was determined as 0.458 µM; in the assay with SK-OV-3 ovarian, 3.2 µM; in the assay on HOP-62 NSCLC it was 4.03 µM; in the assay on SK-MEL-2 melanoma, 5.65 µM; with OVCAR-4 ovarian it was 10.2 µM; with OVCAR-8 ovarian, 4.77 µM. In addition, the TGI with HT29 colon was found to be 0.448 µM; in the assay with NCI-H460 lung, 3.53 µM; in the assay with TK-10 renal it was 13.8 µM.
As to `CCn1c(CSc2nc(-c3ccccc3)c(-c3ccccc3)[nH]2)n[nH]c1=S`, the TGI in the assay on SK-OV-3 ovarian, with OVCAR-3 ovarian, in the assay on HOP-62 NSCLC, in the assay on SK-MEL-2 melanoma, in the assay with OVCAR-4 ovarian and in the assay on OVCAR-8 ovarian was above 100 µM throughout. For the same compound, the TGI in the assay on HT29 colon, in the assay with NCI-H460 lung and with TK-10 renal was above 100 µM in each case.
On to `COc1ccc(-c2nc(N)c(C#N)c3c2CCOc2c-3ccc3ccccc23)cc1`, for which the GI50 with RXF 393 renal was 1.6 µM; in the assay on SK-OV-3 ovarian, 17.4 µM; with HOP-62 NSCLC, 20.8 µM; in the assay on SK-MEL-2 melanoma, 36.8 µM; with OVCAR-4 ovarian it was 1.43 µM; in the assay with OVCAR-8 ovarian it was 23.3 µM. Moreover, the GI50 with HT29 colon was 52.7 µM; in the assay with NCI-H460 lung, 16.3 µM; in the assay on TK-10 renal it was 21.5 µM. For the same compound, the TGI in the assay on RXF 393 renal is 31.1 µM; in the assay with SK-OV-3 ovarian, 55 µM; with HOP-62 NSCLC, 49.7 µM; in the assay on SK-MEL-2 melanoma, above 100 µM; in the assay on OVCAR-4 ovarian it was 9.38 µM; with OVCAR-8 ovarian, 58 µM. Also, the values for the TGI with HT29 colon, with NCI-H460 lung and with TK-10 renal were above 100 µM, above 100 µM and 53.2 µM, respectively.
Consider `Cc1ccc(C2C(Cl)C(=O)N2NC(=O)c2ccc(N)cc2)cc1` (stereo not drawn), for which the TGI was 37.4 µM in the assay with SK-OV-3 ovarian; 36.7 µM in the assay with OVCAR-3 ovarian; 50.2 µM in the assay on HOP-62 NSCLC; 19.8 µM in the assay on SK-MEL-2 melanoma; above 100 µM in the assay with OVCAR-4 ovarian; 38.8 µM in the assay with OVCAR-8 ovarian. For the same compound, the figures for the TGI in the assay with HT29 colon, with NCI-H460 lung and with TK-10 renal were 39.9 µM, 35.5 µM and above 100 µM, respectively.
Turning to `COc1ccc(-c2n[nH]nc2-c2cc(OC)c3c(c2)OCO3)cc1`, the GI50 with SK-OV-3 ovarian is 0.0294 µM; in the assay with OVCAR-3 ovarian, 0.0101 µM; in the assay on HOP-62 NSCLC, below 0.0135 µM; in the assay on SK-MEL-2 melanoma, 0.0184 µM; with OVCAR-4 ovarian it was 1.25 µM; with OVCAR-8 ovarian it was 0.035 µM. The GI50 was 0.0365 µM with HT29 colon, 0.0143 µM with NCI-H460 lung and 15.7 µM with TK-10 renal. Also, the TGI was 2.08 µM with SK-OV-3 ovarian; above 68.1 µM in the assay on HOP-62 NSCLC; 20.3 µM with SK-MEL-2 melanoma; above 100 µM in the assay on OVCAR-4 ovarian; above 52.9 µM in the assay with OVCAR-8 ovarian; 4.29 µM with HT29 colon. Further, the results for the TGI in the assay on NCI-H460 lung and with TK-10 renal were 13.2 µM and above 100 µM, respectively.
